According to article PMC9866588, “Novel 7-Chloro-4-aminoquinoline-benzimidazole Hybrids as Inhibitors of Cancer Cells Growth: Synthesis, Antiproliferative Activity, in Silico ADME Predictions, and Docking” (Molecules, 2023):

Columns and labels:
[1] = tested on: MCF-7 (human breast adenocarcinoma) cells; assay: MTT antiproliferative assay, MCF-7; assay type: cell-based; settings: MCF7, 72 h, mean ± SD of three independent experiments
Experimental: (§1) The growth inhibition activity was assessed according to the slightly modified procedure performed at the National Cancer Institute, Developmental Therapeutics Program.
(§2) The examined compounds were dissolved in DMSO (1 × 10^−2 M). The experiments were carried out on seven human tumor cell lines and a normal cell line. The following cell lines were used: HeLa (human cervical adenocarcinoma; purchased from ATCC), CaCo-2 (human colorectal adenocarcinoma), MCF-7 (human breast adenocarcinoma), CCRF-CEM (human acute lymphoblastic leukemia), Hut78 (T-cell lymphoma), THP-1 (acute monocytic leukemia), Burkitt lymphoma (Raji), and MDCK1 (Madine–Darby canine kidney). The MDCK1 cells were used between 24 and 26 passages.
(§3) The adherent cells were cultured in Dulbecco’s modified Eagle medium—DMEM (Gibco, Termo Fisher Scientific Inc., Leicestershire, England, UK), supplemented with 10% heat-inactivated fetal bovine serum (FBS, Gibco, Termo Fisher Scientific Inc., Leicestershire, England, UK), 2 mM glutamine, and 100U/0.1mg penicillin/streptomycin. The cells in suspension were cultured in RPMI 1640 (Gibco, Termo Fisher Scientific Inc., Leicestershire, England, UK) medium, supplemented with 10% FBS (Gibco, Termo Fisher Scientific Inc., Leicestershire, England, UK), 2 mM glutamine, 1 mM sodium pyruvate, and 10 mM HEPES. The cells were grown in a humidified atmosphere under the conditions of 37 °C/5% of CO2 gas in the CO2 incubator (IGO 150 CELLlife^TM, JOUAN, Thermo Fisher Scientific, Waltham, MA, USA).
(§4) The adherent cells (HeLa, CaCo-2, MCF-7, and MDCK-1) were plated in 96-well flat bottom plates (Greiner, Frickenhausen, Austria) at a concentration of 2 × 10^4 cells/mL. The suspension cells (Raji, THP-1, CCRF-CEM and Hut78) were plated in 96-well microtiter plates (Sarstead, Newton, NC, USA) at a concentration of 1 × 10^5 cells/mL. Twenty-four hours later, the cells were treated with test agents in […] and incubated for a further 72 h. The working dilutions were freshly prepared on the day of testing. The solvent was also tested for eventual inhibitory activity by adjusting its concentration to be the same as in the working concentrations. After 72 h of incubation, the cell growth rate was evaluated by performing the MTT assay, which detects dehydrogenase activity in viable cells. For this purpose, upon completion of the incubation period, the growth medium was discarded and 50 μL of MTT was added to each well at a concentration of 5 mg/mL. After four hours of incubation at 37 °C, the water insoluble MTT-formazan crystals were dissolved in 150 μL of dimethyl-sulfoxide (DMSO) for the adherent cells and in 10% SDS with 0.01 mol/L HCl for the cells grown in suspension. The absorbance (OD, optical density) was measured on a microplate reader (iMark, BIO RAD, Hercules, CA, USA) at 595 nm.
(§5) The percentage of live cells was calculated as follows: % = OD (sample) − OD (background)/OD (control) − OD (background) × 100.
(§6) The optical density (OD) of the background for the adherent cells is the OD of the MTT solution and DMSO; the OD (background) for the suspension cells is the OD of the culture medium with MTT and 10% SDS with 0.01 mol/L HCl; the OD (control) is the OD of the cells grown without the tested compounds.
(§7) The calculation of the GI50 value curves and QC analysis was performed using the Excel tools and GraphPadPrism software (La Jolla, CA, USA), v. 5.03. Briefly, individual concentration effect curves are generated by plotting the logarithm of the concentration of the tested compounds (X) vs. the corresponding percent inhibition values (Y) using the least squares fit. The best-fit GI50 values are calculated using log (inhibitor) versus normalized response—variable slope equation, where Y Ľ 100/(1 ţ 10 ((LogIC50 _ X) × HillSlope)). The QC criteria parameters (Z0, S:B, R2, HillSlope) were checked for every GI50 curve.

[2] = tested on: Hut78 (T-cell lymphoma) cells; assay: MTT antiproliferative assay, HuT78; assay type: cell-based, human; settings: for GI50: Homo sapiens, HuT78, 72 h, MTT, mean ± SD of three independent experiments; for tumor selectivity index (SI) HuT78: with respect to MDCK1 cells
Experimental: as §1, §2, §3, §4, §5, §6, §7

HuT78 cells [3] = assay: Flow cytometry analysis of cell cycle, HuT78; assay type: cell-based, human; settings: HuT78, 5 μM, 24 h
Experimental: (§8) To analyze the effects of the selected compounds (5d, 8d, and 12d) on the cell cycle of the HuT78 and THP-1 cells, the cells were seeded in 6-well plates (5 × 10^5 cells per well) and treated for 24 h with the selected compounds 5d and 12d (5 μM). The cells were then collected and fixed in cold 70% ethanol. The fixed samples were stained with 15 µg/mL of propidium iodide (PI) at room temperature and analyzed by flow cytometry (FACS Canto II, BD Biosciences). The results were analyzed using FlowLogic software.
(§9) One-way ANOVA analysis of variance was performed in the MedCalc statistical program for the analysis of the cell cycle. p-values of less than 0.05 were considered to be statistically significant.

THP-1 cells = assay: Flow cytometry analysis of cell cycle, THP-1; assay type: cell-based, human; settings: THP-1, 5 μM, 24 h
Experimental: as §8, §9

[4] = tested on: CCRF-CEM (human acute lymphoblastic leukemia) cells; assay: MTT antiproliferative assay, CCRF-CEM; assay type: cell-based; settings: for GI50: Homo sapiens, CCRF-CEM, 72 h, MTT, mean ± SD of three independent experiments
Experimental: as §1, §2, §3, §4, §5, §6, §7

[5] = tested on: MDCK1 (Madine–Darby canine kidney) cells; assay: MTT antiproliferative assay, MDCK1; assay type: cell-based; settings: Canis lupus familiaris, MDCK1, 72 h, mean ± SD of three independent experiments
Experimental: as §1, §2, §3, §4, §5, §6, §7

[6] = tested on: Raji (Burkitt lymphoma) cells; assay: MTT antiproliferative assay, Raji; assay type: cell-based, human; settings: for GI50: Homo sapiens, Raji, 72 h, MTT, mean ± SD of three independent experiments
Experimental: as §1, §2, §3, §4, §5, §6, §7

[7] = tested on: THP-1 (acute monocytic leukemia) cells; assay: MTT antiproliferative assay, THP-1; assay type: cell-based, human; settings: for GI50: Homo sapiens, THP-1, 72 h, MTT, mean ± SD of three independent experiments, read-out: GI50 THP1
Experimental: as §1, §2, §3, §4, §5, §6, §7

[8] = tested on: HeLa (human cervical adenocarcinoma) cells; assay: MTT antiproliferative assay, HeLa; assay type: cell-based; settings: 72 h, mean ± SD of three independent experiments
Experimental: as §1, §2, §3, §4, §5, §6, §7

[9] = MTT antiproliferative assay, ranges stated over several cell lines; assay type: cell-based; settings: human (tumor cell lines) and dog (MDCK1); abstract, range over cell lines; read-out: GI50 range (strong cytotoxic activity)
Experimental: as §1, §2, §3, §4, §5, §6, §7

[10] = tested on: normal (MDCK1) and tumor cell lines; assay: as above; assay type: cell-based; settings: MDCK1 and carcinoma cell lines; read-out: GI50, normal and carcinoma cells
Experimental: as §1, §2, §3, §4, §5, §6, §7

[11] = tested on: CaCo-2 (human colorectal adenocarcinoma) cells; assay: MTT antiproliferative assay, CaCo-2; assay type: cell-based; settings: 72 h, mean ± SD of three independent experiments
Experimental: as §1, §2, §3, §4, §5, §6, §7

HuT78 cells [12] = assay: Mitochondrial membrane potential (∆Ψm), TMRE flow cytometry; assay type: cell-based, human; settings: HuT78, 5 μM, 24 h
Experimental: Changes in the (∆Ψm) were measured using TMRE (tetramethylrhodamine, ethyl ester and perchlorate) dye. In brief, the tested cells (HuT 78) were plated in 6-well plates at a concentration of 5 × 10^5 cells per well and treated with 5 μM of the compounds 5d and 12d. After 24 h of treatment, the cells were collected, centrifuged for 6 min at 1100 rpm, and stained with 200 nM of TMRE dye according to the kit protocol (TMRE Mitochondrial Membrane Potential Assay Kit, abcam, Cambridge, UK). The positive control cells were treated with 20 μM FCCP (carbonyl cyanide-p-trifluoromethoxyphenylhydrazone) for 10 min. The cells were analyzed by flow cytometry (BD FACSCalibur, Becton Dickinson, San Jose, CA, USA) and FlowJo software (FlowJo, LLC, Ashland, OR, USA).

HuT78 cells [13] = assay: Annexin V-FITC/PI apoptosis detection; assay type: cell-based, human; settings: HuT78, 5 μM, 24 h
Experimental: The proapoptotic potential of compounds 5d and 12d was tested on the HuT78 cells using the Annexin V-FITC Apoptosis Staining/Detection Kit (ab14085; abcam, UK). The cells were plated in 6-well plates at a concentration of 5 × 10^5 cells/well and treated for 24 h with 12d at a concentration of 5 μM. After the incubation period, the cells were collected and centrifuged at 1100 rpm for 6 min, stained according to the manufacturer‘s protocol, and analyzed by flow cytometry (BD FACSCalibur, Becton Dickinson, San Jose, CA, USA) using FlowJo software (FlowJo, LLC, Ashland, OR, USA).

SMILES | GI50 [1] | GI50 [2] | tumor selectivity index (SI) HuT78 [2] | GI50 [4] | GI50 [5] | GI50 [6] | GI50 [7] | GI50 [8] | GI50 at 72 h [9] | GI50 [11] | other results
Clc1ccc2c(N3CCN(c4ccc(-c5nc6ccccc6[nH]5)cc4)CC3)ccnc2c1 [Compound 8d, 4-(4-(4-(1H-benzo[d]imidazol-2-yl)phenyl)piperazin-1-yl)-7-chloroquinoline] | > 100 µM | 8.1 ± 4.7 µM | > 12.3 | 5 ± 2.6 µM | > 100 µM | 3.8 ± 0.5 µM | 3.2 ± 1.1 µM | > 100 µM | 0.4 to 8 µM | > 100 µM | changes in the cell cycle (HuT78 cells [3]; vs non-treated cells): no significant changes; changes in the cell cycle (THP-1 cells; vs non-treated cells): no significant changes; tumor selectivity index (SI) CCRF CEM ([4]; with respect to MDCK1 cells): > 20; tumor selectivity index (SI) Raji ([6]; with respect to MDCK1 cells): > 26.3; tumor selectivity index (SI) THP1 ([7]; with respect to MDCK1 cells): > 31.5; GI50 [10]: > 100 µM
O=C(NCCNc1ccnc2cc(Cl)ccc12)c1ccc(-c2nc3ccccc3[nH]2)cc1 [Compound 12d, 4-(1H-benzo[d]imidazol-2-yl)-N-(2-(7-chloroquinolin-4-ylamino)ethyl)benzamide] | 20 ± 7.2 µM | 3.5 ± 1.5 µM | 28.5 | 17.2 ± 7.7 µM | 100 µM | 57.7 ± 23.8 µM | 4 ± 0.8 µM | 100 µM | 0.4 to 8 µM | 16.4 ± 5.6 µM | cells with mitochondrial membrane disruption / change in ∆Ψm (HuT78 cells [12]): more than 85%; proportion of polyploid giant cancer cells (HuT78 cells [3]): increased proportion; increase of cells in subG0/G1 phase (HuT78 cells [3]; vs control): 46 times; decrease in G0/G1 phase (HuT78 cells [3]; vs non-treated cells): 63.8%; changes in the other phases of the cell cycle (other than subG0/G1) (THP-1 cells): not statistically significant; increase of cells in subG0/G1 phase (THP-1 cells; vs control): 3.4 times; cells in early apoptosis (HuT78 cells [13]): 3.97%; cells in late stage of apoptosis/necrosis (HuT78 cells [13]): 83.75%
